Measured values taken from patent US8846729B2, “2-thio-1,3,4-oxadiazoles azetidine derivatives as sphingosine-1 phosphate receptors modulators” (Allergan, Inc., priority 2012, dated 2014).

Molecular target: T1, human S1P1 receptor (Homo sapiens, UniProt P21453)
T1 construct: expressed in transfected cells; membranes used
Experiment: GTP γ35S binding assay for S1P1 activity
Type: biochemical
Conditions: membranes of cells stably expressing S1P1 receptor, agonist potency
Description: Compounds were synthesized and tested for S1P1 activity using the GTP γ^355 binding assay. These compounds may be assessed for their ability to activate or block activation of the human S1P1 receptor in cells stably expressing the S1P1 receptor.
[…] binding was measured in the medium containing (mM) HEPES 25, pH 7.4, MgCl2 10, NaCl 100, dithitothreitol 0.5, digitonin 0.003%, 0.2 nM GTP γ^35S, and 5 μg membrane protein in a volume of 150 μl. Test compounds were included in the concentration range from 0.08 to 5,000 nM unless indicated otherwise. Membranes were incubated with 100 μM 5′-adenylylimmidodiphosphate for 30 min, and subsequently with 10 μM GDP for 10 min on ice. Drug solutions and membrane were mixed, and then reactions were initiated by adding GTP γ^355 and continued for 30 min at 25° C. Reaction mixtures were filtered over Whatman GF/B filters under vacuum, and washed three times with 3 mL of ice-cold buffer (HEPES 25, pH7.4, MgCl2 10 and NaCl 100). Filters were dried and mixed with scintillant, and counted for ^35S activity using a β-counter. Agonist-induced GTP γ^355 binding was obtained by subtracting that in the absence of agonist. Binding data were analyzed using a non-linear regression method. In case of antagonist assay, the reaction mixture contained 10 nM […] in the presence of test antagonist at concentrations ranging from 0.08 to 5000 nM.

T1 sequence (P21453 whole entry): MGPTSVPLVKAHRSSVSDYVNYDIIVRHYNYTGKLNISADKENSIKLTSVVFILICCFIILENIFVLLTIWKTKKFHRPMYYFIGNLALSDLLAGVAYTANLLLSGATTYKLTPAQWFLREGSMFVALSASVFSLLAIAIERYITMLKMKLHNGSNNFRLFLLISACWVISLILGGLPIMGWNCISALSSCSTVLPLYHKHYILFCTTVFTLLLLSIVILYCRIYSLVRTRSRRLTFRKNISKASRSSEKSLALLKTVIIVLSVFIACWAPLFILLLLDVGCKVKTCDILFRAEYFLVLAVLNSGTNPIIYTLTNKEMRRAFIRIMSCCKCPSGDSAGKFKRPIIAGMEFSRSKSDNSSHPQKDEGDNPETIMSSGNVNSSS

O=C(O)C1CN(Cc2ccc(-c3nnc(SCc4cccc(Cl)c4F)o3)cc2)C1 [Compound 1, 1-(4-{5-[(3-Chloro-2-fluorobenzyl)thio]-1,3,4-oxadiazol-2-yl}benzyl)azetidine-3-carboxylic acid]
EC50: 18.6 nM

Cc1cc(CN2CC(C(=O)O)C2)ccc1-c1nnc(SC(C)c2cccc([N+](=O)[O-])c2)o1 (stereo not drawn) [Compound 2, 1-[3-Methyl-4-(5-{[1-(3-nitrophenyl)ethyl]thio}-1,3,4-oxadiazol-2-yl)benzyl]azetidine-3-carboxylic acid]
EC50: 16.7 nM

CCC(Sc1nnc(-c2ccc(CN3CC(C(=O)O)C3)cc2C)o1)c1cccc([N+](=O)[O-])c1 (stereo not drawn) [Compound 3, 1-[3-Methyl-4-(5-{[1-(3-nitrophenyl)propyl]thio}-1,3,4-oxadiazol-2-yl)benzyl]azetidine-3-carboxylic acid]
EC50: 60.9 nM
